Experimental data as given in ChEMBL document CHEMBL1201862, “PubChem BioAssay data set” (2004).
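Each compound was tested at five concentrations against cells in 96-well plates for 48 hours. Here, GI50 denotes the concentration required for 50% inhibition of growth.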 Calls of active or inactive are those of the source. No stated cut-off is given here; in the data, active = GI50 up to about 1.1 µM and inactive = higher.

Legend:
Assay in all cases: DTP human tumour cell line panel, 48 h
786-0 = system: 786-0
ACHN = system: ACHN
BT-549 = system: BT-549
CAKI-1 = system: CAKI-1
DU-145 = system: DU-145
KM12 = system: KM12
M14 = system: M14
MDA-MB-435 = system: MDA-MB-435
MDA-N = system: MDA-N
NCI-H522 = system: NCI-H522
NCI/ADR-RES = system: NCI/ADR-RES
OVCAR-4 = system: OVCAR-4
OVCAR-8 = system: OVCAR-8
RXF 393 = system: RXF 393
SF-268 = system: SF-268
SK-MEL-2 = system: SK-MEL-2
SK-MEL-5 = system: SK-MEL-5
SNB-75 = system: SNB-75
T47D = system: T47D
UO-31 = system: UO-31

Compound	GI50 (786-0)	GI50 (ACHN)	GI50 (BT-549)	GI50 (CAKI-1)	GI50 (DU-145)	GI50 (KM12)	GI50 (M14)	GI50 (MDA-MB-435)	GI50 (MDA-N)	GI50 (NCI-H522)	GI50 (NCI/ADR-RES)	GI50 (OVCAR-4)	GI50 (OVCAR-8)	GI50 (RXF 393)	GI50 (SF-268)	GI50 (SK-MEL-2)	GI50 (SK-MEL-5)	GI50 (SNB-75)	GI50 (T47D)	GI50 (UO-31)
O=C(O)c1cc2ccccc2c2c1C(=O)c1ccccc1-2	> 100 µM (inactive)	30.3 µM (inactive)	> 100 µM (inactive)	> 100 µM (inactive)	> 100 µM (inactive)	> 100 µM (inactive)	46.7 µM (inactive)	> 100 µM (inactive)	> 100 µM (inactive)	83.9 µM (inactive)	> 100 µM (inactive)	> 100 µM (inactive)	> 100 µM (inactive)	> 100 µM (inactive)	> 100 µM (inactive)	> 100 µM (inactive)	79.3 µM (inactive)	> 100 µM (inactive)	> 100 µM (inactive)	46 µM (inactive)
COC(=O)c1cc(Br)c(C(=O)C(Cl)(Cl)Cl)[nH]1	> 100 µM (inactive)	> 100 µM (inactive)	> 100 µM (inactive)	> 100 µM (inactive)	> 100 µM (inactive)	> 100 µM (inactive)	> 100 µM (inactive)	> 100 µM (inactive)	> 100 µM (inactive)	> 100 µM (inactive)	> 100 µM (inactive)	> 100 µM (inactive)	> 100 µM (inactive)	> 100 µM (inactive)	> 100 µM (inactive)	> 100 µM (inactive)	> 100 µM (inactive)	> 100 µM (inactive)	> 100 µM (inactive)	> 100 µM (inactive)
NC(=O)NCCSC1CCCCC1O (stereo not given)	> 100 µM (inactive)	> 100 µM (inactive)	> 100 µM (inactive)	> 100 µM (inactive)	> 100 µM (inactive)	> 100 µM (inactive)	> 100 µM (inactive)	> 100 µM (inactive)	> 100 µM (inactive)	> 100 µM (inactive)	> 100 µM (inactive)	> 100 µM (inactive)	> 100 µM (inactive)	> 100 µM (inactive)	> 100 µM (inactive)	> 100 µM (inactive)	> 100 µM (inactive)	> 100 µM (inactive)	> 100 µM (inactive)	> 100 µM (inactive)
Cn1c(-c2cccs2)cc(-c2cccs2)c1-c1cccs1	> 100 µM (inactive)	75 µM (inactive)	> 100 µM (inactive)	> 100 µM (inactive)	> 100 µM (inactive)	35.7 µM (inactive)	> 79.8 µM (inactive)	53.2 µM (inactive)	55.2 µM (inactive)	21.3 µM (inactive)	> 100 µM (inactive)	39.1 µM (inactive)	> 100 µM (inactive)	54.2 µM (inactive)	> 81.8 µM (inactive)	44 µM (inactive)	14.5 µM (inactive)	53.3 µM (inactive)	2.78 µM (inactive)	> 96.4 µM (inactive)
O=C1CC(O)c2c1csc2Br (stereo not given)	17.9 µM (inactive)	21.9 µM (inactive)	23.2 µM (inactive)	37.8 µM (inactive)	25.9 µM (inactive)	18.7 µM (inactive)	18.2 µM (inactive)	18.8 µM (inactive)	22.5 µM (inactive)	15.5 µM (inactive)	20.7 µM (inactive)	31.6 µM (inactive)	23.3 µM (inactive)	17.3 µM (inactive)	27.4 µM (inactive)	34.2 µM (inactive)	> 100 µM (inactive)	26.4 µM (inactive)	23.7 µM (inactive)	19.8 µM (inactive)
CCCCCCCCCCCCCCCCNc1ccn(C2CC(O)C(COC(c3ccccc3)(c3ccccc3)c3ccc(OC)cc3)O2)c(=O)n1 (stereo not given)	> 100 µM (inactive)	> 100 µM (inactive)	> 100 µM (inactive)	> 100 µM (inactive)	> 100 µM (inactive)	> 100 µM (inactive)	> 100 µM (inactive)	> 100 µM (inactive)	> 100 µM (inactive)	> 100 µM (inactive)	> 100 µM (inactive)	> 100 µM (inactive)	> 100 µM (inactive)	> 100 µM (inactive)	> 100 µM (inactive)	> 100 µM (inactive)	> 100 µM (inactive)	> 100 µM (inactive)	> 100 µM (inactive)	20.9 µM (inactive)
Cc1c(OCc2cccc3ccccc23)ccc2c(O)cc(=S)oc12	41.8 µM (inactive)	34.2 µM (inactive)	30.9 µM (inactive)	43 µM (inactive)	36.2 µM (inactive)	29.2 µM (inactive)	34.8 µM (inactive)	30.1 µM (inactive)	43.4 µM (inactive)	23.4 µM (inactive)	38.2 µM (inactive)	29 µM (inactive)	60.4 µM (inactive)	57.9 µM (inactive)	34.1 µM (inactive)	19.4 µM (inactive)	18.5 µM (inactive)	40.9 µM (inactive)	35.2 µM (inactive)	33.6 µM (inactive)
Cc1cc(NS(=O)(=O)c2ccc(NC(=O)c3ccc4[nH]c5ccccc5c(=O)c4c3)cc2)no1	> 100 µM (inactive)	> 100 µM (inactive)	> 100 µM (inactive)	> 100 µM (inactive)	> 100 µM (inactive)	44.1 µM (inactive)	> 100 µM (inactive)	> 100 µM (inactive)	> 100 µM (inactive)	> 100 µM (inactive)	> 100 µM (inactive)	> 100 µM (inactive)	> 100 µM (inactive)	45.4 µM (inactive)	> 100 µM (inactive)	75.3 µM (inactive)	> 100 µM (inactive)	> 100 µM (inactive)	69.7 µM (inactive)	> 100 µM (inactive)
NC(=O)c1csc(C2(O)COC(CO)C2O)n1 (stereo not given)	> 100 µM (inactive)	> 100 µM (inactive)	> 100 µM (inactive)	> 100 µM (inactive)	> 100 µM (inactive)	> 100 µM (inactive)	> 100 µM (inactive)	> 100 µM (inactive)	> 100 µM (inactive)	> 100 µM (inactive)	> 100 µM (inactive)	> 100 µM (inactive)	> 100 µM (inactive)	> 100 µM (inactive)	> 100 µM (inactive)	> 100 µM (inactive)	> 100 µM (inactive)	> 100 µM (inactive)	> 100 µM (inactive)	> 100 µM (inactive)
COc1ccc(/C=c2/[nH]c(=O)/c(=C\c3ccc(OCc4ccccc4)cn3)[nH]c2=O)cc1	49.9 µM (inactive)	> 100 µM (inactive)	45.3 µM (inactive)	> 100 µM (inactive)	> 100 µM (inactive)	47.1 µM (inactive)	62.8 µM (inactive)	19.9 µM (inactive)	19.8 µM (inactive)	71.4 µM (inactive)	58.1 µM (inactive)	> 100 µM (inactive)	98.2 µM (inactive)	23.2 µM (inactive)	41.2 µM (inactive)	51.8 µM (inactive)	50.2 µM (inactive)	19.3 µM (inactive)	> 100 µM (inactive)	0.889 µM (active)
COc1ccc(/C=C(\NC(=O)c2ccccc2)C(=O)NN(C)c2ccnc3cc(Cl)ccc23)cc1OC	27.6 µM (inactive)	26.1 µM (inactive)	20.4 µM (inactive)	28.8 µM (inactive)	27.2 µM (inactive)	17.6 µM (inactive)	22.6 µM (inactive)	21.3 µM (inactive)	24.5 µM (inactive)	21.8 µM (inactive)	20.1 µM (inactive)	30.7 µM (inactive)	23.4 µM (inactive)	18.9 µM (inactive)	18.5 µM (inactive)	21.3 µM (inactive)	23.6 µM (inactive)	32.2 µM (inactive)	30.4 µM (inactive)	28.2 µM (inactive)
CCC(c1nc2ccccc2c(=O)n1NC(=O)C(C)(C)C)C1(O)CCCCC1 (stereo not given)	> 100 µM (inactive)	> 100 µM (inactive)	> 100 µM (inactive)	> 100 µM (inactive)	> 100 µM (inactive)	> 100 µM (inactive)	> 100 µM (inactive)	> 100 µM (inactive)	> 100 µM (inactive)	67.8 µM (inactive)	> 100 µM (inactive)	> 100 µM (inactive)	> 100 µM (inactive)	> 100 µM (inactive)	> 100 µM (inactive)	> 100 µM (inactive)	> 100 µM (inactive)	> 100 µM (inactive)	> 100 µM (inactive)	> 100 µM (inactive)
C=C(CCOC)CCC1CCCCC(CN(C)C)C1=O (stereo not given)	> 100 µM (inactive)	> 100 µM (inactive)	> 100 µM (inactive)	> 100 µM (inactive)	> 100 µM (inactive)	> 100 µM (inactive)	> 100 µM (inactive)	> 100 µM (inactive)	> 100 µM (inactive)	> 100 µM (inactive)	> 100 µM (inactive)	> 100 µM (inactive)	> 100 µM (inactive)	> 100 µM (inactive)	> 100 µM (inactive)	> 100 µM (inactive)	> 100 µM (inactive)	> 100 µM (inactive)	> 100 µM (inactive)	> 100 µM (inactive)
CCc1nc(N)nc(N)c1-c1ccc(N2CCNCC2)c([N+](=O)[O-])c1	5.2 µM (inactive)	17.9 µM (inactive)	45.9 µM (inactive)	64.3 µM (inactive)	29.2 µM (inactive)	12 µM (inactive)	7.08 µM (inactive)	4.27 µM (inactive)	4.85 µM (inactive)	24.4 µM (inactive)	> 100 µM (inactive)	32.7 µM (inactive)	6.7 µM (inactive)	24.5 µM (inactive)	9.29 µM (inactive)	36.9 µM (inactive)	8.59 µM (inactive)	36.6 µM (inactive)	58.5 µM (inactive)	78.7 µM (inactive)
